Results from patent US20100249419A1, “UTILIZATION OF NOVEL COMPOUNDS WITH AMYLOID AFFINITY AND METHOD OF PRODUCING THE SAME” (NIHON MEDI-PHYSICS CO., LTD., priority 2007, published 2010).

Legend:
[1] = Transferability into brain and clearance; assay type: in vivo, male Wistar rats; details: intravenous injection, rats
Description: Using Compound 1 (Example 10) and Compound 2 (Example 11), a time course change of radioactive accumulation in brain of male Wistar rats (7-week old) was measured.
A diethyl ether solution of Compound 1 (Example 10) prepared in Example 3, a diethyl ether solution of Compound 2 (Example 11) prepared in Example 6 and a diethyl ether solution of [^123I]-IMPY (Comparative Example 5) prepared in Reference Example 1 were each diluted with 10 mg/mL ascorbic acid-containing physiological saline solution to adjust to a radioactive concentration of 8-12 MBq/mL. 0.05 mL each of the prepared sample solutions was injected under thiopental anesthesia into the tail vein of the rats. The rats were sacrificed by bleeding from abdominal artery, and brains were removed and subjected to measurement of mass of brains and further subjected to measurement of radioactivity (hereinafter referred to as A in this Example) with a single channel analyzer (detector type: SP-20 manufactured by OHYO KOKEN KOGYO Co., Ltd.) 2, 5, 30 and 60 minutes after the injection. Further, the radioactivity level of the rest of the whole body was measured in the same manner as above (hereinafter referred to as B in this Example). Using these measurement results, radioactive distribution per unit weight of brain (% ID/g) at the respective time points were calculated in accordance with the following formula (3).
Three animals were used for the experiment at the respective time points.
Using Compound 4 and Compound 6, a time course change of radioactive accumulation in brain of male Wistar rats (7-week old) was measured.
Compound 4 (Example 22), Compound 6 (Example 23) and a solution of [^123I]-IMPY (Comparative Example 8) prepared above in Reference Example 1 were each diluted with a 10 mg/mL ascorbic acid-containing physiological saline solution to prepare solutions (20-31 MBq/mL in radioactive concentration). 0.05 mL each of the prepared sample solutions was injected under thiopental anesthesia into the tail vein of the respective Wistar rat (7-week old). The rats were sacrificed by bleeding from abdominal artery, and brains were removed and subjected to measurement of mass of brains and further subjected to measurement of radioactivity (hereinafter referred to as A in this Example) with a single channel analyzer (detector type: SP-20 manufactured by OHYO KOKEN KOGYO Co., Ltd.) 2, 5, 30 and 60 minutes after the injection. Further, the radioactivity level of the rest of the whole body was measured in the same manner as above (hereinafter referred to as B in this Example). Using these measurement results, radioactive distribution per unit weight of brain (% ID/g) at the respective time points were calculated in accordance with the following formula (5).

[2] = Partition coefficient based on the octanol extraction method; assay type: physicochemical; details: octanol / 10 mmol/L phosphate buffer (pH 7.4)
Description: Partition coefficients based on the octanol extraction method (hereinafter referred to as log Poctanol) were measured, which are generally known as an indicator of permeability of compounds through the blood-brain barrier (hereinafter referred to as BBB).
A diethyl ether solution of Compound 1 prepared in Example 3 (Example 8), a diethyl ether solution of Compound 2 prepared in Example 6 (Example 9), and a diethyl ether solution of [^123I]-IMPY prepared in Reference Example 1 (Comparative Example 4) were each diluted with 10 mg/mL ascorbic acid-containing physiological saline solution, and adjusted to a radioactive concentration of 20-30 MBq/mL. To 2 mL of octanol, 10 μL each of the prepared sample solutions was added, 2 mL of 10 mmol/L phosphate buffer (pH 7.4) was added, followed by stirring for 30 seconds. After the mixture was centrifuged with a low-speed centrifuge (2000 rpm×60 min.), the octanol layer and the water layer were sampled each in an amount of 1 mL, and subjected to measurement of radioactivity count with an autowell gamma system (Type: ARC-301B, manufactured by Aloka). Using the obtained radioactivity count, log Poctanol was calculated in accordance with the equation (2).
A diethyl ether solution (Example 20) of Compound 4 prepared in Example 16, a diethyl ether solution (Example 21) of Compound 6 prepared in Example 19, and a diethyl ether solution (Comparative Example 7) of [^123I]-IMPY were each diluted with a 10 mg/mL ascorbic acid-containing physiological saline solution to adjust to a radioactive concentration of 20-30 MBq/mL. To 2 mL of octanol, 10 μL each of the prepared sample solution was added, and 2 mL of 10 mmol/L phosphate buffer (pH 7.4) was further added, followed by stirring for 30 seconds. After the mixture was centrifuged with a low-speed centrifuge (2000 rpm×60 min.), the octanol layer and the water layer were sampled each in an amount of 1 mL, and subjected to measurement of radioactivity count with an autowell gamma system (Type: ARC-301B, manufactured by Aloka). Using the obtained radioactivity count, logPoctanol was calculated in accordance with the equation (4).

Radioactive distribution per unit weight of brain ([1]; After 2 min., Table 7)	Radioactive distribution per unit weight of brain ([1]; After 5 min., Table 7)	Radioactive distribution per unit weight of brain ([1]; After 30 min., Table 7)	Radioactive distribution per unit weight of brain ([1]; After 60 min., Table 7)	logPoctanol value ([2]; Table 6, Examples 20-21)	Radioactive distribution per unit weight of brain ([1]; After 2 min., Table 5)	Radioactive distribution per unit weight of brain ([1]; After 5 min., Table 5)	Radioactive distribution per unit weight of brain ([1]; After 30 min., Table 5)	Radioactive distribution per unit weight of brain ([1]; After 60 min., Table 5)	logPoctanol value ([2]; Table 4, Examples 8-9)	Substance
0.81 % ID/g	0.56 % ID/g	0.07 % ID/g	0.02 % ID/g	2.1						2-[4′-(3″-hydroxypropoxy)phenyl]-6-[^123I]iodoimidazo[1,2-a]pyridine [Compound 6]
					0.90 % ID/g	0.52 % ID/g	0.06 % ID/g	0.01 % ID/g	1.8	2-[4′-(2″-hydroxyethoxy)phenyl]-6-[^123I]iodoimidazo[1,2-a]pyridine [Compound 1]
					0.89 % ID/g	0.66 % ID/g	0.13 % ID/g	0.04 % ID/g	2.1	2-(4′-ethoxyphenyl)-6-[^123I]iodoimidazo[1,2-a]pyridine [Compound 2]
